# Measurements published in paper PMC9316017, “Succinimido–Ferrocidiphenol Complexed with Cyclodextrins Inhibits Glioblastoma Tumor Growth In Vitro and In Vivo without Noticeable Adverse Toxicity” (Molecules, 2022).
# Like-named read-outs stand apart in the source and are kept apart here.
# Experiments:
# [1] = Dissolution of the lyophilized complex in water; assay type: physicochemical; details: 25 °C
# Protocol: To investigate the dissolution, an amount (5 mg) of the lyophilized SuccFerr:RAMEßCD complex was suspended in water. The suspension was incubated at 25 °C in a shaking-bath (200 strokes/min, Heito, France). One-milliliter aliquots were taken at various time intervals up to 24 h and centrifuged× 7200g, 5 min, (Denver Instruments, Bohemia, NY, USA). Each supernatant was analyzed by HPLC to assess the drug contents. The results are presented as mean ± SD of triplicate experiments. A dialysis was also realized under magnetic stirring with a 14,000 Da cut-off bag, containing 2 mL of an aqueous solution of 5 mg of SuccFerr:RAMEßCD and 498 mL of distilled water. Aliquots were taken and analyzed as previously described.
# [2] = test system: fifteen molecularly diverse glioblastoma patient-derived cell lines (PDCLs); set-up: method as in PMID 34638742; details: cited from earlier work
compound,measurement,setting,value
"O=C1CCC(=O)N1CCCC(=C(c1ccc(O)cc1)c1ccc(O)cc1)[c-]1cccc1.[Fe+2].c1cc[cH-]c1 [SuccFerr, N-[4-ferrocenyl,5-5-bis (4-hydroxyphenyl)-pent-4-enyl]-succinimide]",dissolution in distilled water,[1],cannot be dissolved and was undetectable
same,IC50 ratio (highest/lowest),[2],≈ 3000
same,IC50,[2]; read-out: highest IC50 across the PDCLs,~30 µM
same,IC50,[2]; read-out: lowest IC50 across the PDCLs,0.01 µM
